{"source": "patent US8759481B2", "about": "“Peptide vaccines for cancers expressing tumor-associated antigens” (Oncotherapy Science, Inc., priority 2007, dated 2014)", "tested_on": "CD8+ T cells (HLA-A*0201 donors)", "experiment": "In vitro CTL induction with peptide-pulsed DCs (positive donor number)", "type": "cell-based, human", "settings": "HLA-A*0201, 9-mer peptides derived from INHBB; positive/total donors", "how_it_was_run": "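Monocyte-derived DCs (GM-CSF/IL-4, 7 days) pulsed with 20 μg/ml peptide plus β2-microglobulin, MMC-inactivated, co-cultured 1:20 with autologous CD8+ T cells with IL-7, then IL-2; restimulated days 7 and 14. CTL activity tested against peptide-pulsed T2 cells on day 21; value = positive donors/total donors.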"}
{"sequence": "VQCDSCQEL", "values": [{"measurement": "positive donor number", "value": "0/1"}]}
